From ChEMBL document CHEMBL2434853, “3-(3-Butylamino-2-hydroxy-propoxy)-1-hydroxy-xanthen-9-one acts as a topoisomerase IIα catalytic inhibitor with low DNA damage” (Eur J Med Chem, 2013)
The source made the active and inactive calls. The rule behind the calls is not given here.

Columns and labels:
[1] = Induction of pHOT1 DNA (unknown origin) intercalating activity assessed as blockade of DNA unwinding at 50 to 500 uM after 30 mins by agarose gel electrophoresis in presence of DNA topoisomerase-1
[2] = system: Escherichia coli; assay: Induction of Escherichia coli pBR322 DNA intercalating activity assessed as retardation of DNA at 1 to 2.5 uM after 20 mins by agarose gel electrophoresis
[3] = molecular target: T1, DNA topoisomerase 2-alpha (Homo sapiens, UniProt P11388); assay: Inhibition of human DNA topoisomerase-2alpha assessed as relaxation of supercoiled pBR322 DNA at 10 uM after 30 mins by agarose gel electrophoresis relative to control
T1 sequence (P11388 whole entry): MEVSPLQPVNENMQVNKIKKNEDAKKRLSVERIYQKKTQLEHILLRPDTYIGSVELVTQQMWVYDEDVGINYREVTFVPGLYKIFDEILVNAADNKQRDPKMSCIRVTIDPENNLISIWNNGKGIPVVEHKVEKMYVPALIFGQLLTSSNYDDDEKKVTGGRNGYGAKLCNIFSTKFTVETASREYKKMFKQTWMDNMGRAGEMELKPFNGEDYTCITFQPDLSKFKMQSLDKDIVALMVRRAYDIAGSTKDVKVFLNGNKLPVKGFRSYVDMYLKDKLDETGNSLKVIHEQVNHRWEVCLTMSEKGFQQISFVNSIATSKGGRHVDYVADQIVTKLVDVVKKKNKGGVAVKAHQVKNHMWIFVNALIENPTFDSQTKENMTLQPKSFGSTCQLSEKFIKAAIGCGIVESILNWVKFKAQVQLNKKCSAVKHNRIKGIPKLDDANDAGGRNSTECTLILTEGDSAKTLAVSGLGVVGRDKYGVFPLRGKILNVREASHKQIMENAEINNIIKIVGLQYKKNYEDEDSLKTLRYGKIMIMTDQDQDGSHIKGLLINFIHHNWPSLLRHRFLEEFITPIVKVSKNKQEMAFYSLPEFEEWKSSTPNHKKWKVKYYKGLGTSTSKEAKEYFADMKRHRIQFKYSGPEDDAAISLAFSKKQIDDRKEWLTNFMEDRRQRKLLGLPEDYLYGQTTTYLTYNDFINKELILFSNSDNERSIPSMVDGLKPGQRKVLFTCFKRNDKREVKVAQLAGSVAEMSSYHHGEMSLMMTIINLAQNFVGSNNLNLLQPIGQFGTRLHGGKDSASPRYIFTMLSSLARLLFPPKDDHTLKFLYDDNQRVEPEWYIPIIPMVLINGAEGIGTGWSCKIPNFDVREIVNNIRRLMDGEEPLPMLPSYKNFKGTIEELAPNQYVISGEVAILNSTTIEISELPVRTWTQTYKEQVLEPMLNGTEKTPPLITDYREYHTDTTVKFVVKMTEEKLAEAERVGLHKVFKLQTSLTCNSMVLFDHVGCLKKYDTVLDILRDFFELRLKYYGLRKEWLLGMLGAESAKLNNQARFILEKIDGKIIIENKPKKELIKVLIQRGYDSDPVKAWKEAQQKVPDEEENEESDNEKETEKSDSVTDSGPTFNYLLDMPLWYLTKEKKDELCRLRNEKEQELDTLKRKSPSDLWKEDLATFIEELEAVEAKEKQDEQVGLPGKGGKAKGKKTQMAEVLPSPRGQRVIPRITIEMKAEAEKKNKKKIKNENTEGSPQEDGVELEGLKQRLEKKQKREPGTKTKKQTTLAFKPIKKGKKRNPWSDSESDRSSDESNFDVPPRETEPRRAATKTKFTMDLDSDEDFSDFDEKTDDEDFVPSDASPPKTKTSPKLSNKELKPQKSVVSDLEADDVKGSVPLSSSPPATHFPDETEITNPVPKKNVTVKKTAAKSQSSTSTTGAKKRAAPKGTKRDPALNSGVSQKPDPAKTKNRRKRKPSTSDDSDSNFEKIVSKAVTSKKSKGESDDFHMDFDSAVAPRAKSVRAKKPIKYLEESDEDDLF

[4] = system: HEK293; assay: Cytotoxicity against HEK293 cells after 2 days by CCK-8 assay; assay type: functional, cell-based; conditions: Homo sapiens, HEK293, 48 h
[5] = system: HCT-15; assay: Cytotoxicity against human HCT15 cells after 2 days by CCK-8 assay; assay type: functional, cell-based; conditions: HCT-15, 48 h
[6] = system: T47D; assay: Cytotoxicity against human T47D cells after 2 days by CCK-8 assay; assay type: functional, cell-based; conditions: 48 h
[7] = molecular target: T2, DNA topoisomerase 1 (Homo sapiens) (UniProt P11387); assay: Inhibition of recombinant human DNA topoisomerase-1 assessed as relaxation of supercoiled pBR322 DNA at 20 uM after 30 mins by agarose gel electrophoresis relative to control
T2 sequence (whole entry): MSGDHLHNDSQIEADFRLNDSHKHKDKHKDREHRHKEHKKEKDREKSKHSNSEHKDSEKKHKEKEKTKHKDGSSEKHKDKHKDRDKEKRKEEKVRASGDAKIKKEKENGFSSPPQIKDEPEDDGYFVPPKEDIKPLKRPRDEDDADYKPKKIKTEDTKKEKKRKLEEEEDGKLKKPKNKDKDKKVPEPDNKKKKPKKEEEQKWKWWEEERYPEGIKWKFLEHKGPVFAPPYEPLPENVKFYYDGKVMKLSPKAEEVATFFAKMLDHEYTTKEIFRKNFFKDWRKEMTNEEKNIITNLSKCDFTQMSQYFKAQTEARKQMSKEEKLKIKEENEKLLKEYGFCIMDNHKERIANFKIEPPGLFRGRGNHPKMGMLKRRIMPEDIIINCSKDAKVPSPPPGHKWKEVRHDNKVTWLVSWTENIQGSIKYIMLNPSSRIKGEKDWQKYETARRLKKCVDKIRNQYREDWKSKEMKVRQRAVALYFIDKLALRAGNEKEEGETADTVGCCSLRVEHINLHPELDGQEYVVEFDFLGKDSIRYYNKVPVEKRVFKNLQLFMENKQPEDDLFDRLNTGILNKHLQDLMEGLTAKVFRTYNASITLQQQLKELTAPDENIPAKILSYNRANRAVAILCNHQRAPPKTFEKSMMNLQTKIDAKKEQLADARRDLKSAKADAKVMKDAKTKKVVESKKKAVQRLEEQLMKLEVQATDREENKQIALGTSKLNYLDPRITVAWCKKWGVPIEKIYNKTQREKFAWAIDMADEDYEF

[8] = molecular target: T1, DNA topoisomerase 2-alpha; assay: Inhibition of human DNA topoisomerase-2alpha assessed as relaxation of supercoiled pBR322 DNA after 30 mins by agarose gel electrophoresis
[9] = molecular target: T1, DNA topoisomerase 2-alpha; assay: Inhibition of human DNA topoisomerase-2alpha assessed as relaxation of supercoiled pBR322 DNA at 20 uM after 30 mins by agarose gel electrophoresis relative to control
[10] = system: DU-145; assay: Cytotoxicity against human DU145 cells after 2 days by CCK-8 assay; assay type: functional, cell-based; conditions: DU-145, 48 h
[11] = molecular target: T1, DNA topoisomerase 2-alpha; assay: Inhibition of human DNA topoisomerase-2alpha assessed as relaxation of supercoiled pBR322 DNA at 100 uM after 30 mins by agarose gel electrophoresis relative to control
[12] = molecular target: T1, DNA topoisomerase 2-alpha; assay: Inhibition of human DNA topoisomerase-2alpha ATPase activity using supercoiled pUC18 DNA as substrate assessed as inorganic phosphate release at 200 uM incubated for 30 mins prior to ATP addition measured after 30 mins by malachite green phosphate assay relative to control
[13] = molecular target: T1, DNA topoisomerase 2-alpha; assay: Inhibition of human DNA topoisomerase-2alpha ATPase activity using supercoiled pUC18 DNA as substrate assessed as inorganic phosphate release at 400 uM incubated for 30 mins prior to ATP addition measured after 30 mins by malachite green phosphate assay relative to control
[14] = molecular target: T1, DNA topoisomerase 2-alpha; assay: Inhibition of human DNA topoisomerase-2alpha ATPase activity using supercoiled pUC18 DNA as substrate assessed as inorganic phosphate release at 300 uM incubated for 30 mins prior to ATP addition measured after 30 mins by malachite green phosphate assay relative to control
[15] = molecular target: T1, DNA topoisomerase 2-alpha; conditions: 100 uM
Description: Competitive inhibition of recombinant human DNA topoisomerase-2alpha assessed as relaxation of supercoiled pBR322 DNA at 100 uM after 30 mins by agarose gel electrophoresis in presence of 1 mM ATP relative to control

[16] = system: HCT-15; assay: Induction of DNA damage in human HCT15 cells at 10 uM after 24 hrs by comet assay; assay type: functional, cell-based
[17] = molecular target: T1, DNA topoisomerase 2-alpha; conditions: 100 uM; remark: listed apart in the source
Description: Competitive inhibition of recombinant human DNA topoisomerase-2alpha assessed as relaxation of supercoiled pBR322 DNA at 100 uM after 30 mins by agarose gel electrophoresis in presence of 1.5 mM ATP relative to control

[18] = molecular target: T1, DNA topoisomerase 2-alpha; conditions: 2 uM
Description: Competitive inhibition of recombinant human DNA topoisomerase-2alpha assessed as relaxation of supercoiled pBR322 DNA at 2 uM after 30 mins by agarose gel electrophoresis in presence of 1 mM ATP relative to control

[19] = molecular target: T1, DNA topoisomerase 2-alpha; conditions: 20 uM
Description: Competitive inhibition of recombinant human DNA topoisomerase-2alpha assessed as relaxation of supercoiled pBR322 DNA at 20 uM after 30 mins by agarose gel electrophoresis in presence of 1.5 mM ATP relative to control

[20] = molecular target: T1, DNA topoisomerase 2-alpha; conditions: 20 uM; remark: listed apart in the source
Description: Competitive inhibition of recombinant human DNA topoisomerase-2alpha assessed as relaxation of supercoiled pBR322 DNA at 20 uM after 30 mins by agarose gel electrophoresis in presence of 1 mM ATP relative to control

[21] = molecular target: T1, DNA topoisomerase 2-alpha; conditions: 2 uM; remark: listed apart in the source
Description: Competitive inhibition of recombinant human DNA topoisomerase-2alpha assessed as relaxation of supercoiled pBR322 DNA at 2 uM after 30 mins by agarose gel electrophoresis in presence of 1.5 mM ATP relative to control

[22] = molecular target: T1, DNA topoisomerase 2-alpha; conditions: 5 uM
Description: Competitive inhibition of recombinant human DNA topoisomerase-2alpha assessed as relaxation of supercoiled pBR322 DNA at 5 uM after 30 mins by agarose gel electrophoresis in presence of 1.5 mM ATP relative to control

[23] = molecular target: T1, DNA topoisomerase 2-alpha; conditions: 10 uM
Description: Competitive inhibition of recombinant human DNA topoisomerase-2alpha assessed as relaxation of supercoiled pBR322 DNA at 10 uM after 30 mins by agarose gel electrophoresis in presence of 1.5 mM ATP relative to control

[24] = system: HCT-15; assay: Potency index, ratio of etoposide IC50 to compound IC50 for human HCT15 cells; assay type: functional
[25] = system: Escherichia coli; assay: Induction of Escherichia coli pBR322 DNA intercalating activity assessed as retardation of DNA at 300 uM after 20 mins by agarose gel electrophoresis
[26] = molecular target: T1, DNA topoisomerase 2-alpha; conditions: 10 uM; remark: listed apart in the source
Description: Competitive inhibition of recombinant human DNA topoisomerase-2alpha assessed as relaxation of supercoiled pBR322 DNA at 10 uM after 30 mins by agarose gel electrophoresis in presence of 1 mM ATP relative to control

[27] = molecular target: T1, DNA topoisomerase 2-alpha; conditions: 50 uM
Description: Competitive inhibition of recombinant human DNA topoisomerase-2alpha assessed as relaxation of supercoiled pBR322 DNA at 50 uM after 30 mins by agarose gel electrophoresis in presence of 1.5 mM ATP relative to control

[28] = molecular target: T1, DNA topoisomerase 2-alpha; conditions: 50 uM; remark: listed apart in the source
Description: Competitive inhibition of recombinant human DNA topoisomerase-2alpha assessed as relaxation of supercoiled pBR322 DNA at 50 uM after 30 mins by agarose gel electrophoresis in presence of 1 mM ATP relative to control

[29] = molecular target: T1, DNA topoisomerase 2-alpha; conditions: 5 uM; remark: listed apart in the source
Description: Competitive inhibition of recombinant human DNA topoisomerase-2alpha assessed as relaxation of supercoiled pBR322 DNA at 5 uM after 30 mins by agarose gel electrophoresis in presence of 1 mM ATP relative to control

[30] = Induction of pHOT1 DNA (unknown origin) intercalating activity assessed as blockade of DNA unwinding after 30 mins by agarose gel electrophoresis in presence of DNA topoisomerase-1

Row | SMILES | inhibition [3] | IC50 [4] | IC50 [5] | IC50 [6] | inhibition [7] | IC50 [8] | inhibition [9] | IC50 [10] | inhibition [11] | further results
1 | COc1cc(NS(C)(=O)=O)ccc1Nc1c2ccccc2nc2ccccc12 |  |  |  |  |  |  |  |  |  | Activity [1]: Active
2 | CC[n+]1c(-c2ccccc2)c2cc(N)ccc2c2ccc(N)cc21 |  |  |  |  |  |  |  |  |  | Activity [2]: Active
3 | CCCNCC(O)COc1cc(O)c2c(=O)c3ccccc3oc2c1 (configuration not stated) | 50.2% | 4.28 µM | 5.49 µM | 6.49 µM | 0% | 10.4 µM | 60.2% | 1.98 µM | 93.8% | 
4 | COc1cccc2c1C(=O)c1c(O)c3c(c(O)c1C2=O)C[C@@](O)(C(=O)CO)C[C@@H]3O[C@H]1C[C@H](N)[C@H](O)[C@H](C)O1 [DOXORUBICIN] |  | 3.07 µM | 1.38 µM | 0.41 µM |  |  |  | 2.68 µM |  | 
5 | CC[C@@]1(O)C(=O)OCc2c1cc1n(c2=O)Cc2cc3ccccc3nc2-1 [CAMPTOTHECIN] |  | 0.78 µM | 0.42 µM | 0.3 µM |  |  |  | 0.39 µM |  | 
6 | CCCNCC(O)COc1cc(O)c2c(=O)c3cccc(OC)c3oc2c1 (configuration not stated) | 6% | 3.62 µM | 5.39 µM | 3.33 µM | 0% | 12 µM | 64.4% | 1.48 µM | 100% | 
7 | CCCCCCNCC(O)COc1cc(O)c2c(=O)c3cccc(OC)c3oc2c1 (configuration not stated) | 0% | 4.53 µM | 6.32 µM | 6.17 µM | 0% | 13.8 µM | 61.2% | 1.79 µM | 100% | 
8 | CCCCCNCC(O)COc1cc(O)c2c(=O)c3ccccc3oc2c1 (configuration not stated) | 0.7% | 2.65 µM | 0.71 µM | 1.62 µM | 3% | 16.4 µM | 52.1% | 1.13 µM | 92.9% | 
9 | CO[C@@H]1[C@@H](OC(N)=O)[C@@H](O)[C@H](Oc2ccc3c(O)c(NC(=O)c4ccc(O)c(CC=C(C)C)c4)c(=O)oc3c2C)OC1(C)C |  |  |  |  |  |  |  |  |  | inhibition [12]: 14.4%; inhibition [13]: 76.8%; inhibition [14]: 63.6%
10 | COc1cc([C@@H]2c3cc4c(cc3[C@@H](O[C@@H]3O[C@@H]5CO[C@@H](C)O[C@H]5[C@H](O)[C@H]3O)[C@H]3COC(=O)[C@H]23)OCO4)cc(OC)c1O [ETOPOSIDE] | 18% | 0.72 µM | 5.12 µM | 3.42 µM |  |  |  | 9.29 µM |  | inhibition [15]: 87.6%; Activity [16]: Active; inhibition [17]: 82.6%
11 | CCCCCCNCC(O)COc1cc(O)c2c(=O)c3ccccc3oc2c1 (configuration not stated) | 0% | 1.45 µM | 1.53 µM | 1.28 µM | 0% | 19.7 µM | 43.6% | 1.15 µM | 80.7% | 
12 | CCCCNCC(O)COc1cc(O)c2c(=O)c3ccccc3oc2c1 (configuration not stated) | 64% | 3.44 µM | 0.78 µM | 0.93 µM | 0% | 9 µM | 67.7% | 1.98 µM | 95.1% | inhibition [15]: 88.7%; inhibition [18]: 4%; inhibition [19]: 37.7%; inhibition [12]: 15.1%; inhibition [20]: 87.9%; inhibition [21]: 7.1%; inhibition [22]: 17.5%; inhibition [23]: 21%; Activity [16]: inactive; Ratio IC50 [24]: 6.6; inhibition [13]: 33.7%; Activity [25]: Active; inhibition [17]: 88.7%; inhibition [14]: 23.9%; inhibition [26]: 60.4%; inhibition [27]: 64.9%; inhibition [28]: 87.7%; inhibition [29]: 48.5%; Activity [30]: Dose-dependent effect
13 | CCCCNCC(O)COc1cc(O)c2c(=O)c3cccc(OC)c3oc2c1 (configuration not stated) | 24.2% | 1.74 µM | 9.11 µM | 2.97 µM | 0% | 11.2 µM | 68.1% | 3.31 µM | 100% | 
14 | CCCCCNCC(O)COc1cc(O)c2c(=O)c3cccc(OC)c3oc2c1 (configuration not stated) | 2% | 7.22 µM | 1 µM | 9.8 µM | 0% | 13.8 µM | 62.6% | 0.91 µM | 100% | 
